# Legend:
# [1] = Metabolic stability at human liver S9 fraction assessed as compound remaining after 1 hr; type: ADME, subcellular; conditions: read-out: Stability
# [2] = tested on: Streptococcus pyogenes; assay: Antibacterial activity against Streptococcus pyogenes 3 expressing mefA efflux pump after 20 hrs by agar dilution method; type: functional; conditions: Streptococcus pyogenes, 3, 20 h
# [3] = tested on: Staphylococcus aureus; assay: Antibacterial activity against Staphylococcus aureus 209P JC1 after 20 hrs by agar dilution method; type: functional; conditions: 209P JC1, 20 h
# [4] = tested on: Haemophilus influenzae; assay: Antibacterial activity against Haemophilus influenzae 2 after 20 hrs by agar dilution method; type: functional; conditions: Haemophilus influenzae, 2, 20 h
# [5] = tested on: Haemophilus influenzae; assay: Antibacterial activity against Haemophilus influenzae 3 after 20 hrs by agar dilution method; type: functional; conditions: Haemophilus influenzae, 3, 20 h
# [6] = tested on: Streptococcus pneumoniae; assay: Antibacterial activity against Streptococcus pneumoniae 11 expressing mefA efflux pump after 20 hrs by agar dilution method; type: functional; conditions: Streptococcus pneumoniae, 11, 20 h
# [7] = tested on: Streptococcus pneumoniae; assay: Antibacterial activity against Streptococcus pneumoniae 8 expressing inducible ermB methylase after 20 hrs by agar dilution method; type: functional; conditions: Streptococcus pneumoniae, 8, 20 h
# [8] = tested on: Streptococcus pneumoniae; assay: Antibacterial activity against Streptococcus pneumoniae DP1 type 1 after 20 hrs by agar dilution method; type: functional; conditions: DP1 type1, 20 h
# [9] = tested on: Streptococcus pneumoniae; assay: Antibacterial activity against Streptococcus pneumoniae 7 expressing constitutive ermB methylase after 20 hrs by agar dilution method; type: functional; conditions: Streptococcus pneumoniae, 7, 20 h
# [10] = tested on: Streptococcus pneumoniae; assay: Antibacterial activity against Streptococcus pneumoniae 6 expressing constitutive ermB methylase and mefA after 20 hrs by agar dilution method; type: functional; conditions: Streptococcus pneumoniae, 6, 20 h
# [11] = tested on: Streptococcus pyogenes; assay: Antibacterial activity against Streptococcus pyogenes Cook after 20 hrs by agar dilution method; type: functional
# [12] = tested on: Streptococcus pneumoniae; assay: Antibacterial activity against Streptococcus pneumoniae 10 expressing mefA efflux pump after 20 hrs by agar dilution method; type: functional; conditions: Streptococcus pneumoniae, 10, 20 h
# [13] = tested on: Haemophilus influenzae; assay: Antibacterial activity against Haemophilus influenzae 1 after 20 hrs by agar dilution method; type: functional; conditions: Haemophilus influenzae, 1, 20 h
# [14] = tested on: Streptococcus pneumoniae; assay: Antibacterial activity against Streptococcus pneumoniae 5 expressing constitutive ermB methylase after 20 hrs by agar dilution method; type: functional; conditions: Streptococcus pneumoniae, 5, 20 h
# [15] = tested on: Streptococcus pyogenes; assay: Antibacterial activity against Streptococcus pyogenes 2 expressing constitutive ermB methylase after 20 hrs by agar dilution method; type: functional; conditions: Streptococcus pyogenes, 2, 20 h
# [16] = tested on: Streptococcus pneumoniae; assay: Antibacterial activity against Streptococcus pneumoniae 9 expressing inducible ermB methylase after 20 hrs by agar dilution method; type: functional; conditions: Streptococcus pneumoniae, 9, 20 h
structure (smiles),measurement,setting,value
CCNC(=O)O[C@H]1[C@H](C)O[C@@H](O[C@H]2[C@H](N(C)C)[C@@H](O)[C@H](O[C@H]3[C@@H](CC=O)C[C@@H](C)[C@@H](O)CN(C)CCC[C@H](C/C=C/c4cnc5ccccc5c4)OC(=O)C[C@@H](OC(=O)CC)[C@@H]3OC)O[C@@H]2C)C[C@@]1(C)OC(=O)CC,remaining at 1 h,[1],79%
same,MIC,[2],0.13 µg/mL
same,MIC,[3],0.25 µg/mL
same,MIC,[4],16 µg/mL
same,MIC,[5],16 µg/mL
same,MIC,[6],0.015 µg/mL
same,MIC,[7],0.13 µg/mL
same,MIC,[8],0.015 µg/mL
same,MIC,[9],16 µg/mL
same,MIC,[10],16 µg/mL
same,MIC,[11],0.06 µg/mL
same,MIC,[12],0.015 µg/mL
same,MIC,[13],8 µg/mL
same,MIC,[14],16 µg/mL
same,MIC,[15],32 µg/mL
same,MIC,[16],0.25 µg/mL
CCC(=O)O[C@@H]1CC(=O)O[C@@H](C/C=C/c2ccc3ccccc3c2)CCCN(C)C[C@H](O)[C@H](C)C[C@H](CC=O)[C@H](O[C@@H]2O[C@H](C)[C@@H](O[C@H]3C[C@@](C)(O)[C@@H](OC(=O)CC)[C@H](C)O3)[C@H](N(C)C)[C@H]2O)[C@H]1OC,MIC,[2],1 µg/mL
same,MIC,[3],0.5 µg/mL
same,MIC,[4],16 µg/mL
same,MIC,[5],16 µg/mL
same,MIC,[6],0.13 µg/mL
same,MIC,[7],8 µg/mL
same,MIC,[8],0.06 µg/mL
same,MIC,[9],32 µg/mL
same,MIC,[10],32 µg/mL
same,MIC,[11],0.25 µg/mL
same,MIC,[12],0.13 µg/mL
same,MIC,[13],8 µg/mL
same,MIC,[14],32 µg/mL
same,MIC,[15],32 µg/mL
same,MIC,[16],8 µg/mL
CCNC(=O)O[C@H]1[C@H](C)O[C@@H](O[C@H]2[C@H](N(C)C)[C@@H](O)[C@H](O[C@H]3[C@@H](CC=O)C[C@@H](C)[C@@H](O)CN(C)CCC[C@H](C/C=C/c4cnc5ccccc5c4)OC(=O)C[C@@H](O)[C@@H]3OC)O[C@@H]2C)C[C@@]1(C)OC(=O)CC,MIC,[2],0.06 µg/mL
same,MIC,[3],0.25 µg/mL
same,MIC,[4],4 µg/mL
same,MIC,[5],4 µg/mL
same,MIC,[6],0.015 µg/mL
same,MIC,[7],0.06 µg/mL
same,MIC,[8],< 0.008 µg/mL
same,MIC,[9],4 µg/mL
same,MIC,[10],4 µg/mL
same,MIC,[11],0.06 µg/mL
same,MIC,[12],0.015 µg/mL
same,MIC,[13],2 µg/mL
same,MIC,[14],4 µg/mL
same,MIC,[15],8 µg/mL
same,MIC,[16],0.06 µg/mL
CCNC(=O)O[C@H]1[C@H](C)O[C@@H](O[C@H]2[C@H](N(C)C)[C@@H](O)[C@H](O[C@H]3[C@@H](CC=O)C[C@@H](C)[C@@H](O)CN(C)CCC[C@H](C/C=C/c4cncc5ccccc45)OC(=O)C[C@@H](O)[C@@H]3OC)O[C@@H]2C)C[C@@]1(C)OC(=O)CC,MIC,[2],0.13 µg/mL
same,MIC,[3],0.25 µg/mL
same,MIC,[4],4 µg/mL
same,MIC,[5],4 µg/mL
same,MIC,[6],0.015 µg/mL
same,MIC,[7],0.06 µg/mL
same,MIC,[8],< 0.008 µg/mL
same,MIC,[9],4 µg/mL
same,MIC,[10],4 µg/mL
same,MIC,[11],0.03 µg/mL
same,MIC,[12],0.015 µg/mL
same,MIC,[13],2 µg/mL
same,MIC,[14],2 µg/mL
same,MIC,[15],32 µg/mL
same,MIC,[16],0.06 µg/mL
CCNC(=O)O[C@H]1[C@H](C)O[C@@H](O[C@H]2[C@H](N(C)C)[C@@H](O)[C@H](O[C@H]3[C@@H](CC=O)C[C@@H](C)[C@@H](O)CN(C)CCC[C@H](C/C=C/c4ccc(N)nc4)OC(=O)C[C@@H](O)[C@@H]3OC)O[C@@H]2C)C[C@@]1(C)OC(=O)CC,MIC,[2],0.13 µg/mL
same,MIC,[3],2 µg/mL
same,MIC,[4],8 µg/mL
same,MIC,[5],16 µg/mL
same,MIC,[6],0.13 µg/mL
same,MIC,[7],0.25 µg/mL
same,MIC,[8],0.03 µg/mL
same,MIC,[9],4 µg/mL
same,MIC,[10],4 µg/mL
same,MIC,[11],0.13 µg/mL
same,MIC,[12],0.06 µg/mL
same,MIC,[13],4 µg/mL
same,MIC,[14],4 µg/mL
same,MIC,[15],16 µg/mL
same,MIC,[16],0.25 µg/mL
CCNC(=O)O[C@H]1[C@H](C)O[C@@H](O[C@H]2[C@H](N(C)C)[C@@H](O)[C@H](O[C@H]3[C@@H](CC=O)C[C@@H](C)[C@@H](O)CN(C)CCC[C@H](C/C=C/c4cnc(N)c5ccccc45)OC(=O)C[C@@H](O)[C@@H]3OC)O[C@@H]2C)C[C@@]1(C)OC(=O)CC,MIC,[2],0.03 µg/mL
same,MIC,[3],0.5 µg/mL
same,MIC,[4],4 µg/mL
same,MIC,[5],8 µg/mL
same,MIC,[6],0.015 µg/mL
same,MIC,[7],0.06 µg/mL
same,MIC,[8],0.015 µg/mL
same,MIC,[9],1 µg/mL
same,MIC,[10],1 µg/mL
same,MIC,[11],0.03 µg/mL
same,MIC,[12],0.015 µg/mL
same,MIC,[13],2 µg/mL
same,MIC,[14],1 µg/mL
same,MIC,[15],2 µg/mL
same,MIC,[16],0.03 µg/mL
CC[C@H]1OC(=O)[C@H](C)[C@@H](O[C@H]2C[C@@](C)(OC)[C@@H](O)[C@H](C)O2)[C@H](C)[C@@H](O[C@@H]2O[C@H](C)C[C@H](N(C)C)[C@H]2O)[C@](C)(OC)C[C@@H](C)C(=O)[C@H](C)[C@@H](O)[C@]1(C)O [CLARITHROMYCIN],MIC,[2],8 µg/mL
same,MIC,[3],0.13 µg/mL
same,MIC,[4],8 µg/mL
same,MIC,[5],8 µg/mL
same,MIC,[6],1 µg/mL
same,MIC,[7],> 128 µg/mL
same,MIC,[8],0.03 µg/mL
same,MIC,[9],> 128 µg/mL
same,MIC,[10],> 128 µg/mL
same,MIC,[11],0.03 µg/mL
same,MIC,[12],1 µg/mL
same,MIC,[13],2 µg/mL
same,MIC,[14],> 128 µg/mL
same,MIC,[15],> 128 µg/mL
same,MIC,[16],> 128 µg/mL
CCCC(=O)O[C@H]1[C@H](C)O[C@@H](O[C@H]2[C@H](N(C)C)[C@@H](O)[C@H](O[C@H]3[C@@H](CC=O)C[C@@H](C)[C@@H](O)/C=C/C=C/C[C@@H](C)OC(=O)C[C@@H](O)[C@@H]3OC)O[C@@H]2C)C[C@@]1(C)OC(=O)CC [ROKITAMYCIN],MIC,[2],0.13 µg/mL
same,MIC,[3],0.13 µg/mL
same,MIC,[4],8 µg/mL
same,MIC,[5],8 µg/mL
same,MIC,[6],0.06 µg/mL
same,MIC,[7],1 µg/mL
same,MIC,[8],0.03 µg/mL
same,MIC,[9],> 128 µg/mL
same,MIC,[10],> 128 µg/mL
same,MIC,[11],0.06 µg/mL
same,MIC,[12],0.06 µg/mL
same,MIC,[13],2 µg/mL
same,MIC,[14],> 128 µg/mL
same,MIC,[15],> 128 µg/mL
same,MIC,[16],1 µg/mL

# — ChEMBL document CHEMBL1156987, “Novel azalides derived from 16-membered macrolides. III. Azalides modified at the C-15 and 4'' positions: Improved antibacterial activities” (Bioorg Med Chem, 2010)
